Laboratory results as given in patent publication US20220213047A1, “CARBONIC ANHYDRASE INHIBITORS FOR TREATMENT OF NEISSERIA GONORRHOEAE INFECTION” (Purdue Research Foundation, priority 2021, published 2022).
Values after ≈ are worked out from the molar mass of the structure shown. “Also recorded” adds a separate entry of the source.

Key:
N. gonorrhoeae [1] = test: MIC against N. gonorrhoeae clinical isolates, normal and CO2 conditions; assay type: cell-based; details: Neisseria gonorrhoeae
Description: (§1) These tests were performed in normal culture conditions with standard CO2 levels and in CO2 (5% in incubator) conditions.

N. gonorrhoeae [2] = test: MIC by agar dilution on a larger panel of N. gonorrhoeae strains; assay type: cell-based, Neisseria gonorrhoeae; details: for MIC: Neisseria gonorrhoeae, read-out: MIC
Description: as §1

Question: Which results are given for `CCOc1ccc2nc(S(N)(=O)=O)sc2c1` [Ethoxzolamide]?
Answer: MIC (N. gonorrhoeae [1]; N. gonorrhoeae 178, Non CO2 environment): ≤ 0.5 µg/mL; MIC (N. gonorrhoeae [1]; N. gonorrhoeae 178, normal growth environment (with CO2)): > 64 µg/mL; MIC (N. gonorrhoeae [1]; N. gonorrhoeae 181, Non CO2 environment): ≤ 0.5 µg/mL; MIC (N. gonorrhoeae [1]; N. gonorrhoeae 181, normal growth environment (with CO2)): > 64 µg/mL; MIC (N. gonorrhoeae [1]; N. gonorrhoeae 194, Non CO2 environment): ≤ 0.5 µg/mL; MIC (N. gonorrhoeae [1]; N. gonorrhoeae 194, normal growth environment (with CO2)): > 64 µg/mL; activity against N. gonorrhoeae under CO2 conditions (N. gonorrhoeae [2]; CO2 conditions versus standard conditions, listed as EZM): did not maintain any activity; also recorded: significant reduction of activity; MIC (N. gonorrhoeae [2]; N. gonorrhoeae 165, CO2 (5% CO2 containing air)): > 128 µg/mL; MIC (N. gonorrhoeae [2]; N. gonorrhoeae 166, CO2 (5% CO2 containing air)): > 128 µg/mL; MIC (N. gonorrhoeae [2]; N. gonorrhoeae 166, Non CO2 (ambient air)): 0.06 µg/mL (≈ 0.232 µM); MIC (N. gonorrhoeae [2]; N. gonorrhoeae 167, CO2 (5% CO2 containing air)): 64 µg/mL (≈ 248 µM); MIC (N. gonorrhoeae [2]; N. gonorrhoeae 167, Non CO2 (ambient air)): 0.25 µg/mL (≈ 0.968 µM); MIC (N. gonorrhoeae [2]; N. gonorrhoeae 170, CO2 (5% CO2 containing air)): > 128 µg/mL; MIC (N. gonorrhoeae [2]; N. gonorrhoeae 170, Non CO2 (ambient air)): 0.06 µg/mL (≈ 0.232 µM); MIC (N. gonorrhoeae [2]; N. gonorrhoeae 171, CO2 (5% CO2 containing air)): 64 µg/mL (≈ 248 µM); MIC (N. gonorrhoeae [2]; N. gonorrhoeae 173, CO2 (5% CO2 containing air)): 128 µg/mL (≈ 496 µM); MIC (N. gonorrhoeae [2]; N. gonorrhoeae 174, CO2 (5% CO2 containing air)): > 128 µg/mL; MIC (N. gonorrhoeae [2]; N. gonorrhoeae 175, CO2 (5% CO2 containing air)): > 128 µg/mL; MIC (N. gonorrhoeae [2]; N. gonorrhoeae 175, Non CO2 (ambient air)): 0.25 µg/mL (≈ 0.968 µM); MIC (N. gonorrhoeae [2]; N. gonorrhoeae 176, CO2 (5% CO2 containing air)): 128 µg/mL (≈ 496 µM); MIC (N. gonorrhoeae [2]; N. gonorrhoeae 176, Non CO2 (ambient air)): 0.25 µg/mL (≈ 0.968 µM); MIC (N. gonorrhoeae [2]; N. gonorrhoeae 177, CO2 (5% CO2 containing air)): 16 µg/mL (≈ 61.9 µM); MIC (N. gonorrhoeae [2]; N. gonorrhoeae 177, Non CO2 (ambient air)): 0.5 µg/mL (≈ 1.94 µM); MIC (N. gonorrhoeae [2]; N. gonorrhoeae 178, CO2 (5% CO2 containing air)): > 128 µg/mL; MIC (N. gonorrhoeae [2]; N. gonorrhoeae 178, Non CO2 (ambient air)): 0.06 µg/mL (≈ 0.232 µM); MIC (N. gonorrhoeae [2]; N. gonorrhoeae 179, CO2 (5% CO2 containing air)): > 128 µg/mL; MIC (N. gonorrhoeae [2]; N. gonorrhoeae 179, Non CO2 (ambient air)): 0.25 µg/mL (≈ 0.968 µM); MIC (N. gonorrhoeae [2]; N. gonorrhoeae 180, CO2 (5% CO2 containing air)): > 128 µg/mL; MIC (N. gonorrhoeae [2]; N. gonorrhoeae 181, CO2 (5% CO2 containing air)): 64 µg/mL (≈ 248 µM); MIC (N. gonorrhoeae [2]; N. gonorrhoeae 181, Non CO2 (ambient air)): 0.25 µg/mL (≈ 0.968 µM); MIC (N. gonorrhoeae [2]; N. gonorrhoeae 182, CO2 (5% CO2 containing air)): 64 µg/mL (≈ 248 µM); MIC (N. gonorrhoeae [2]; N. gonorrhoeae 182, Non CO2 (ambient air)): 0.25 µg/mL (≈ 0.968 µM); MIC (N. gonorrhoeae [2]; N. gonorrhoeae 183, CO2 (5% CO2 containing air)): 32 µg/mL (≈ 124 µM); MIC (N. gonorrhoeae [2]; N. gonorrhoeae 184, CO2 (5% CO2 containing air)): 32 µg/mL (≈ 124 µM); MIC (N. gonorrhoeae [2]; N. gonorrhoeae 184, Non CO2 (ambient air)): 0.25 µg/mL (≈ 0.968 µM); MIC (N. gonorrhoeae [2]; N. gonorrhoeae 185, CO2 (5% CO2 containing air)): 64 µg/mL (≈ 248 µM); MIC (N. gonorrhoeae [2]; N. gonorrhoeae 186, CO2 (5% CO2 containing air)): 64 µg/mL (≈ 248 µM); MIC (N. gonorrhoeae [2]; N. gonorrhoeae 188, CO2 (5% CO2 containing air)): 64 µg/mL (≈ 248 µM); MIC (N. gonorrhoeae [2]; N. gonorrhoeae 188, Non CO2 (ambient air)): 0.06 µg/mL (≈ 0.232 µM); MIC (N. gonorrhoeae [2]; N. gonorrhoeae 191, CO2 (5% CO2 containing air)): > 128 µg/mL; MIC (N. gonorrhoeae [2]; N. gonorrhoeae 191, Non CO2 (ambient air)): 0.06 µg/mL (≈ 0.232 µM); MIC (N. gonorrhoeae [2]; N. gonorrhoeae 193, CO2 (5% CO2 containing air)): 64 µg/mL (≈ 248 µM); MIC (N. gonorrhoeae [2]; N. gonorrhoeae 194, CO2 (5% CO2 containing air)): 64 µg/mL (≈ 248 µM); MIC (N. gonorrhoeae [2]; N. gonorrhoeae 194, Non CO2 (ambient air)): 0.25 µg/mL (≈ 0.968 µM); MIC (N. gonorrhoeae [2]; N. gonorrhoeae 196, CO2 (5% CO2 containing air)): > 128 µg/mL
